ChEMBL document CHEMBL1201862, “PubChem BioAssay data set” (2004)
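Step 1: Grow cells in 96-well plates. Step 2: Expose to compound for 48 hours at 5 concentrations. Step 3: Interpolate endpoints linearly; if unreached, use highest concentration. GI50 = concentration required for 50% inhibition of growth.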 Calls of active or inactive are those of the source. Cut-off read from the data, not from the text of the source: active = GI50 up to about 1.1 µM and inactive = higher.

Key:
Assay in all cases: DTP human tumour cell line panel, 48 h
[1] = tested on: K562
[2] = tested on: HT-29
[3] = tested on: NCI-H226
[4] = tested on: SNB-19
[5] = tested on: RPMI-8226
[6] = tested on: CAKI-1
[7] = tested on: SF-539
[8] = tested on: HCT-15
[9] = tested on: MOLT-4
[10] = tested on: 786-0
[11] = tested on: SN12C
[12] = tested on: UACC-62
[13] = tested on: EKVX
[14] = tested on: UACC-257
[15] = tested on: HOP-62
[16] = tested on: KM12
[17] = tested on: U-251
[18] = tested on: SK-MEL-28
[19] = tested on: NCI/ADR-RES
[20] = tested on: Malme-3M

COc1ccc(CCNC(=O)CCc2ccccc2CO)cc1OC
GI50 [1]: > 100 µM (inactive) | GI50 [2]: > 100 µM (inactive) | GI50 [3]: > 100 µM (inactive) | GI50 [4]: > 100 µM (inactive) | GI50 [5]: > 100 µM (inactive) | GI50 [6]: > 100 µM (inactive) | GI50 [7]: > 100 µM (inactive) | GI50 [8]: > 100 µM | GI50 [9]: > 100 µM (inactive) | GI50 [10]: > 100 µM (inactive) | GI50 [11]: > 100 µM (inactive) | GI50 [12]: > 100 µM (inactive) | GI50 [13]: > 100 µM (inactive) | GI50 [14]: > 100 µM (inactive) | GI50 [15]: > 100 µM (inactive) | GI50 [16]: > 100 µM (inactive) | GI50 [17]: > 100 µM (inactive) | GI50 [18]: > 100 µM (inactive) | GI50 [19]: > 100 µM (inactive)

S=C(N/N=C/c1ccccn1)N1CC2CCC(CC2)C1
GI50 [1]: < 0.01 µM (active) | GI50 [2]: < 0.01 µM (active) | GI50 [4]: 0.161 µM (active) | GI50 [5]: < 0.01 µM (active) | GI50 [6]: < 0.01 µM (active) | GI50 [7]: < 0.0229 µM (active) | GI50 [8]: < 0.01 µM | GI50 [9]: < 0.01 µM (active) | GI50 [10]: < 0.01 µM (active) | GI50 [11]: < 0.0216 µM (active) | GI50 [20]: < 0.047 µM (active) | GI50 [12]: < 0.0365 µM (active) | GI50 [13]: < 0.0395 µM (active) | GI50 [14]: < 0.01 µM (active) | GI50 [15]: < 0.01 µM (active) | GI50 [16]: < 0.01 µM (active) | GI50 [17]: < 0.01 µM (active) | GI50 [18]: 0.0559 µM (active) | GI50 [19]: < 0.01 µM (active)

N/N=C(\N)SCc1ccc(N=C=S)cc1
GI50 [1]: > 100 µM (inactive) | GI50 [2]: > 100 µM (inactive) | GI50 [4]: > 100 µM (inactive) | GI50 [5]: > 100 µM (inactive) | GI50 [6]: > 100 µM (inactive) | GI50 [7]: > 100 µM (inactive) | GI50 [8]: > 100 µM | GI50 [9]: > 100 µM (inactive) | GI50 [10]: > 100 µM (inactive) | GI50 [11]: > 100 µM (inactive) | GI50 [20]: > 100 µM (inactive) | GI50 [12]: > 100 µM (inactive) | GI50 [13]: > 100 µM (inactive) | GI50 [14]: > 100 µM (inactive) | GI50 [15]: > 100 µM (inactive) | GI50 [16]: > 100 µM (inactive) | GI50 [17]: > 100 µM (inactive) | GI50 [18]: > 100 µM (inactive) | GI50 [19]: > 100 µM (inactive)

COC(=O)C(/C(=N/N)C(=O)Nc1cccc(O)c1)c1nc2ccccc2nc1O (configuration not stated)
GI50 [1]: > 100 µM (inactive) | GI50 [2]: > 100 µM (inactive) | GI50 [3]: > 100 µM (inactive) | GI50 [4]: > 100 µM (inactive) | GI50 [5]: > 10 µM (inactive) | GI50 [6]: > 100 µM (inactive) | GI50 [7]: > 100 µM (inactive) | GI50 [8]: > 100 µM | GI50 [9]: > 100 µM (inactive) | GI50 [10]: > 100 µM (inactive) | GI50 [11]: > 100 µM (inactive) | GI50 [12]: > 100 µM (inactive) | GI50 [13]: > 100 µM (inactive) | GI50 [14]: > 100 µM (inactive) | GI50 [15]: > 100 µM (inactive) | GI50 [16]: > 100 µM (inactive) | GI50 [17]: > 100 µM (inactive) | GI50 [18]: > 100 µM (inactive) | GI50 [19]: > 100 µM (inactive)

CNC(=O)CCNC(=O)CCC(=O)N(C)C
GI50 [1]: > 100 µM (inactive) | GI50 [2]: > 100 µM (inactive) | GI50 [4]: > 100 µM (inactive) | GI50 [5]: > 100 µM (inactive) | GI50 [6]: > 100 µM (inactive) | GI50 [7]: > 100 µM (inactive) | GI50 [8]: > 100 µM | GI50 [9]: > 100 µM (inactive) | GI50 [10]: > 100 µM (inactive) | GI50 [11]: > 100 µM (inactive) | GI50 [20]: 15.7 µM (inactive) | GI50 [12]: > 100 µM (inactive) | GI50 [15]: > 100 µM (inactive) | GI50 [16]: > 100 µM (inactive) | GI50 [17]: > 100 µM (inactive) | GI50 [18]: > 100 µM (inactive) | GI50 [19]: > 100 µM (inactive)

O=[N+]([O-])c1ccc(C(=S)Nc2ccccc2)o1
GI50 [1]: 0.938 µM (active) | GI50 [2]: 1.85 µM (inactive) | GI50 [4]: 4.62 µM (inactive) | GI50 [5]: 1.53 µM (inactive) | GI50 [6]: 4.11 µM (inactive) | GI50 [7]: 1.58 µM (inactive) | GI50 [8]: 2.07 µM | GI50 [9]: 1.26 µM (inactive) | GI50 [10]: 2.07 µM (inactive) | GI50 [11]: 2.42 µM (inactive) | GI50 [20]: 2.91 µM (inactive) | GI50 [12]: 3.46 µM (inactive) | GI50 [13]: 5.11 µM (inactive) | GI50 [14]: 4.3 µM (inactive) | GI50 [15]: 2.65 µM (inactive) | GI50 [16]: 2.38 µM (inactive) | GI50 [17]: 1.48 µM (inactive) | GI50 [18]: 4.27 µM (inactive) | GI50 [19]: 2.16 µM (inactive)
